Experiments:
[1] = molecular target: T1, alpha-glucosidase (Saccharomyces cerevisiae) (Saccharomyces cerevisiae, UniProt P53341); assay: biochemical
T1 construct: purchased Sigma-Aldrich, Cape Town, South Africa
Text: (§1) EGCG (epigallocatechin gallate), Trolox (6-hydroxyl-2,5,7,8-tetramethylchroman-2-carboxylic acid), and other reagents such as TPTZ (2,4,6-tri[2-pyridyl]-s-triazine, iron (III) chloride hexahydrate, ABTS (2,2-azino-bis (3-ethylbenzo thiazoline-6-sulfonic acid) diammonium salt), AAPH (2,2-Azobis (2-methylpropionamidine) dihydrochloride), fluorescein sodium salt, potassium peroxodisulfate, copper sulfate, hydrogen peroxide, perchloric acid, alpha-glucosidase (Saccharomyces cerevisiae), alpha-amylase ([…]), and 3,5,di-nitro salicylic acid (DNS), sodium carbonate (Na2CO3), 4-nitro-phenyl-α-D-glucopyranoside (pNPG), di-sodium hydrogen phosphate, and sodium dihydrogen phosphate purchased from Sigma-Aldrich, Cape Town, South Africa. The organic solvents used in this study were supplied by Merck, Cape Town, South Africa. The NMR spectra were carried out on an Avance 400 MHz spectrometer (Bruker, Rheinstetten, Germany) using deuterated chloroform. Preparative HPLC was utilized for the purification of compounds using HPLC-grade methanol and distilled water.
Briefly, 20 μL of 5 mM substrate ([…]) was added to each well and left to incubate for 20 min at 37 °C. The reacting mixture was stopped after incubation by adding 0.1 M sodium carbonate (50 μL). The release of p-nitrophenol of the reacting mixture relating to the activity of the enzyme was read at a wavelength of 405 nm using a multiplate reader (Multiskan, Thermo Scientific).
All the measurements were repeated three times, and the IC50 was calculated using GraphPad Prism 5 version 5.01 (Graph pad software, Inc., La Jolla, CA, USA) statistical software. The data presented are means ± SD obtained from 96-well-plate readers for all in vitro experiments.

[2] = Oxygen radical absorbance capacity (ORAC) assay; details: Trolox equivalent; mean ± SD of triplicate
Text: The method of Cao and Prior (1998) was employed to measure oxygen radical absorbance capacity (ORAC) and as reported in our previous study. The method measures the scavenging potential of compounds against the decomposition of peroxyl radical of 2,2-azobis (2-amino-propane) dihydrochloride (AAPH) as peroxyradical (ORAC ROO^•). The antioxidant capacity of a compound is a measure of the fading fluorescence of a probe (fluorescein) using the area under the curve (AUC) plot in relation to a control blank. The florescence of the probe was programmed to be measured at every two minutes for 2 h after the addition of AAPH at the excitation wavelength and emission set at 485 and 530 nm, respectively. The ORAC results were estimated following a regression equation (Y = a + bX + Cx^2) between Trolox concentration (Y in μM) and the net area under the fluorescence decay curve (X). ORAC values were expressed as μM Trolox equivalent (TE)/mg of test sample.

[3] = Trolox equivalent absorbance capacity (TEAC) assay; details: mean ± SD of triplicate
Description: The TEAC assay was evaluated following the method of Pellegrini et al. (1999). The working solution containing 88 µL of K2S2O8 (140 mM) and 5 mL ABTS (7 mM) was kept for at least 16 h in the dark at 25 °C. The working solution was then diluted after 16 h with ethanol until the absorbance read approximately 2.0 (±0.1). The extract, purified compounds, or standard (25 µL) was mixed with 300 µL working solution and allowed to incubate in the dark for 30 min at room temperature. Trolox was used as the standard using a concentration range between 0 and 500 µM. The absorbance of the reaction was read at a wavelength of 734 nm using a multiplate reader.

[4] = Ferric-ion reducing antioxidant power (FRAP) assay; details: ascorbic acid equivalent; mean ± SD of triplicate
Description: The FRAP assay was assessed according to the method of Benzie and Strain (1996). FRAP reagent containing the mixture of acetate buffer (300 mM, pH 3.6), tripyridyl triazine (TPTZ) (10 mM in 40 mM HCl), and 20 mM FeCl3.6H2O in ratio 10:1:1 (v/v/v) was used. Extract, compounds, or standard (10 µL) was added to 300 µL FRAP reagent, incubated for 30 min in the dark at room temperature. The reacting mixture was read at a wavelength of 593 nm in a multiplate reader. Ascorbic acid was used as standard at varying concentrations of 0 to 1000 µM. The result was presented as a mean of independent triplicate experiments and expressed as µM ascorbic acid equivalents per milligram dry weight (µM AAE/g) of the test samples.

[5] = molecular target: T2, alpha-amylase (procaine pancreas) (Sus scrofa, UniProt P00690); assay: Alpha-amylase inhibitory activity (starch/DNS); format: biochemical; details: mean ± SD, n = 3; samples 100–31.2 μg/mL; NA: not active within the evaluated concentrations
T2 construct: purchased Sigma-Aldrich, Cape Town, South Africa
T2 sequence (P00690 16-511): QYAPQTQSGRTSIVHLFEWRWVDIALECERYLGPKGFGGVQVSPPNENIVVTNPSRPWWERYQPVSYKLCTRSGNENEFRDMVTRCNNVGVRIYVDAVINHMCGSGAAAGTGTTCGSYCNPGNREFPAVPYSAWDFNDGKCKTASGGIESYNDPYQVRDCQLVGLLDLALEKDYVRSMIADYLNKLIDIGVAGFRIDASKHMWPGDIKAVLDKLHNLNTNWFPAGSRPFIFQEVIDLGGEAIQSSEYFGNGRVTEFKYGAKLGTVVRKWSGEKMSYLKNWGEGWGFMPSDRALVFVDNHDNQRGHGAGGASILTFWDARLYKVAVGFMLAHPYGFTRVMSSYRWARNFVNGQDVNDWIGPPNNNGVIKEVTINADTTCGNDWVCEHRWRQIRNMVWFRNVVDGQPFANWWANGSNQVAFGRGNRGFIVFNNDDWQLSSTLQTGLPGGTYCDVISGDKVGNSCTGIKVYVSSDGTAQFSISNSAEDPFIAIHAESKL
Text: as §1
The mixture was allowed to incubate for 20 min at 37 °C before the addition of 1% soluble starch (10 μL) and further incubated for another 30 min. A color reagent DNS (100 μL) was added and boiled at 95 °C for 15 min. The change in color was read at a wavelength of […] using a multiplate reader.
The data presented are means ± SD obtained from 96-well-plate readers for all in vitro experiments.

[6] = molecular target: rat liver diacylglycerol acyltransferase 1 (DGAT1); design: method as in PMID 28034282; details: read-out: IC50 against rat liver DGAT1; cited from earlier work
[7] = system: intracellular de novo triglyceride synthesis; design: method as in PMID 28034282; details: without affecting cell viability; cited from earlier work

T1 sequence (P53341 whole entry): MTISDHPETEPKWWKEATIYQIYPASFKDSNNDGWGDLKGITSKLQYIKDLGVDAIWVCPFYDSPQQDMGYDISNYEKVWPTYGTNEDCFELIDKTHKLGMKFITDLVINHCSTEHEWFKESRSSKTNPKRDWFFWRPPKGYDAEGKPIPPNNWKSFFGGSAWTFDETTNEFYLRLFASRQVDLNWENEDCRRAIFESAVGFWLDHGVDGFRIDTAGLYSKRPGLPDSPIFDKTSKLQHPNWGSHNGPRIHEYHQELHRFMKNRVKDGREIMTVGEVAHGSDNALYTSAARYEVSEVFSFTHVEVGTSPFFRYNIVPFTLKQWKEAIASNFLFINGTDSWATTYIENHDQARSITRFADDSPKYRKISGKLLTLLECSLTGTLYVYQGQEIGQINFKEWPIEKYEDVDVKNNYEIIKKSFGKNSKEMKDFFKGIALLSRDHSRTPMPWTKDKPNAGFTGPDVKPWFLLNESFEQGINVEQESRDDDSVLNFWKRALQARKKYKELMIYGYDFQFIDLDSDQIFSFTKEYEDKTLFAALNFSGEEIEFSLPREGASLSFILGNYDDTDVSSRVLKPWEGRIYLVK

| Compound | IC50 [1] [µM] | IC50 [5] [µM] | ORAC [2] [mM TE/g] | TEAC [3] [mM TE/g] | FRAP [4] [mM AAE/g] | IC50 [6] [µM] | deactivation of intracellular de novo triglyceride synthesis [7] |
| --- | --- | --- | --- | --- | --- | --- | --- |
| COc1c(C(C)C)cc2c(c1O)[C@@]1(C(=O)O)CCCC(C)(C)[C@@H]1CC2 [12-methoxycarnosic acid] | 107 | 46.8 | 20.25 ± 0.01 | 0.34 ± 0.003 | 0.51 ± 0.003 |  |  |
| O=C(O[C@@H]1Cc2c(O)cc(O)cc2O[C@@H]1c1cc(O)c(O)c(O)c1)c1cc(O)c(O)c(O)c1 [EGCG, epigallocatechin gallate, reference compound] |  |  | 3.98 ± 0.00 | 4.15 ± 0.02 | 7.53 ± 0.005 |  |  |

Continued, in another order:

| IC50 [1] [µM] | IC50 [5] [µM] | Compound | ORAC [2] [mM TE/g] | TEAC [3] [mM TE/g] | FRAP [4] [mM AAE/g] | IC50 [6] [µM] | deactivation of intracellular de novo triglyceride synthesis [7] |
| --- | --- | --- | --- | --- | --- | --- | --- |
| 96.2 |  | COc1ccc(-c2cc(=O)c3c(O)cc(OC)cc3o2)cc1 [4,7-dimethylapigenin ether, 4,7-dimethylapigenin] | 6.47 ± 0.01 | 3.19 ± 0.003 | 0.61 ± 0.006 |  |  |
| 157 | 59.9 | CC(C)c1cc2c(c(O)c1O)[C@@]13CCCC(C)(C)[C@@H]1C[C@@H]2OC3=O [Carnosol, carnosol] | 23.96 ± 0.01 | 0.33 ± 0.002 | 3.92 ± 0.002 | 62.5 | 67.5–90.6% |
| 47.3 | 118 | CC(C)c1cc2c(c(O)c1O)[C@@]13CCCC(C)(C)[C@@H]1[C@H](OC3=O)[C@H]2O [Rosmanol, rosmanol] | 25.79 ± 0.01 | 2.06 ± 0.003 | 1.52 ± 0.002 |  |  |
